Test results: US20220119355A1, “SATURATED-RING-FUSED DIHYDROPYRIMIDINONE OR DIHYDROTRIAZINONE COMPOUNDS AND PHARMACEUTICAL USE THEREOF” (Japan Tobacco Inc., priority 2018, published 2022)

What was measured:
human RORγ = target: T1, human RORγ (Homo sapiens, UniProt P51449); experiment: In-vitro reporter gene assay for inhibitory activity against RORγ transcription, Test Method B (pFA/hRORγ LBD / pG5-Luc in CHO cells); assay type: cell-based; conditions: for EC50: luciferase reporter, CHO cells, 2 days
T1 construct: from Ser253 to Lys518 for human RORγ; expressed in transfected cells; host or cells: CHO cells (transient co-transfection with pG5-Luc)
T1 sequence (P51449 253-518): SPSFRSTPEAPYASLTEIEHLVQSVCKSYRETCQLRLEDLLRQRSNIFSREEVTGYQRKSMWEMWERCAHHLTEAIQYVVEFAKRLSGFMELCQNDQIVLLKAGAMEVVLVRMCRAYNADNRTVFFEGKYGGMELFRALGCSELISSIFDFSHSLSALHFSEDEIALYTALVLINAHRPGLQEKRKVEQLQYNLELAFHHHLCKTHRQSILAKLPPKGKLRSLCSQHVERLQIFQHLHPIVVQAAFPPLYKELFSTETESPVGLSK
Description: (§1) In-Vitro Assay for Inhibitory Activity Against RORγ Transcription
(§2) Inhibitory activity against RORγ transcription was assessed for test compounds by either of the following Test Method A or B of reporter gene assay.
(§3) cDNAs encoding human and mouse RORγ ligand binding domains (LBD) were obtained based on the sequences of human RORγ (Genbank registered number NM_005060.3) and mouse RORγ (Genbank registered number NM_011281.2) (LBD sequences: from Ser253 to Lys518 for human RORγ; from Ile251 to Lys516 for mouse RORγ).
(§4) LBD cDNAs of human and mouse RORγ were inserted into pFA-CMV vector (Agilent Technologies, Inc.), which expresses GAL4-DNA binding domain fusion protein. The resulting plasmids are hereinafter referred to as pFA/hRORγ plasmid and pFA/mRORγ plasmid, respectively.
(§5) pFA/hRORγ plasmid or pFA/mRORγ plasmid was transiently co-transfected into Chinese hamster ovary cells (CHO cells) with pG5-Luc (Promega), reporter plasmid expressing firefly luciferase in a GAL4-dependent manner.
(§6) TransIT (Registered trademark) CHO Transfection Kit (Mirus) was used to co-transfect CHO cells with the plasmids. One day prior to the assay, CHO cells were suspended in HAM F-12 Nutrient medium containing 10% (v/v) fetal bovine serum and seeded at 5.5×10^6 cells per 225 cm^2 cell culture flask each. 72 μL of TransIT (Registered trademark) CHO reagent was added into a 2 mL tube containing 1.55 mL of Opti-MEM, and then mixed and incubated at room temperature for 10 minutes. 50.4 μL of a plasmid solution containing 300 ng of pFA/hRORγ plasmid, 12000 ng of pG5-Luc plasmid, and 11700 ng of pcDNA3.1 plasmid were added into the tube and mixed gently. In the case of mouse assay, a plasmid solution containing 300 ng of pFA/mRORγ plasmid, 12000 ng of pG5-Luc plasmid, and 11700 ng of pcDNA3.1 plasmid was added, instead. The mixture was incubated at room temperature for 10 minutes. 12 μL each of CHO Mojo Reagent were then added into each tube and mixed gently. The mixture was incubated at room temperature for 10 minutes. The resulting transfection reagent was applied to the cell culture. After incubation at 37° C., 5% CO2 for 4 hours, the plasmid-transfected CHO cells were harvested by trypsin treatment. The collected cells were resuspended in culture medium and plated into a 384-well-white plate at 8,000 cells/35 μL/well. The plate was let stand at room temperature for 1 hour and then further incubated at 37° C., 5% CO2 for 3 hours. A test compound was dissolved in dimethyl sulfoxide (DMSO) to obtain a concentration of 10 mM. Each solution was serially diluted with DMSO and further diluted with culture medium just before use. The test compound solutions were added to the cells in the plate at 6 different concentrations. The final concentration of DMSO was 0.2% (v/v). After the addition of test compound, the cells were incubated at 37° C., 5% CO2 for 2 days.
(§7) RORγ transcriptional activity was detected as the intracellular luciferase activity using SteadyLite HTS Reporter Gene Assay System (Perkin Elmer). SteadyLite Reagent was diluted 2.5-fold with Extension buffer (10 mM Tricine, 0.2% (w/v) bovine serum albumin, 0.02% (v/v) Tween-20) to obtain a luciferase substrate solution. Two days after the addition of test compound, 40 μL each of the luciferase substrate solution was added into the 384-well-plate. After the incubation at room temperature for 10 minutes, luminescence of each well was measured with a microplate reader. The luciferase activity derived from the luminescence count in a vehicle-control well treated with 0.2% DMSO alone was defined as 100%, and the luciferase activity after treatment of the test compound was calculated as a percentage, %-of-control, based on the value of the vehicle-control. An EC50 value of the test compound was calculated by curve fitting. The luminescence counts at the concentration of test compound where cytotoxicity was observed were excluded from data analysis. […]

mouse RORγ = target: T2, mouse RORγ (Mus musculus, UniProt P51450); experiment: In-vitro reporter gene assay for inhibitory activity against RORγ transcription, Test Method B (pFA/mRORγ LBD / pG5-Luc in CHO cells); assay type: cell-based; conditions: for EC50: luciferase reporter, CHO cells, 2 days
T2 construct: from Ile251 to Lys516 for mouse RORγ; expressed in transfected cells; host or cells: CHO cells (transient co-transfection with pG5-Luc)
T2 sequence (P51450 251-516): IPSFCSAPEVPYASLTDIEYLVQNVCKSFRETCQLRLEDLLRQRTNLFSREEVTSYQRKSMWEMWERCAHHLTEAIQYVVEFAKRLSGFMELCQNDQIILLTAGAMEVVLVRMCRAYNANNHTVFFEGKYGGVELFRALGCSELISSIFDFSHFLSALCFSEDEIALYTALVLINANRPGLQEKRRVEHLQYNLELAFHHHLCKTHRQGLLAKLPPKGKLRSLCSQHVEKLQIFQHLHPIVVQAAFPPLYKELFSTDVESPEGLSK
Description: as §1, §2, §3, §4, §5, §6, §7

[1] = vehicle-control 0.2% DMSO = 100%

## CC(C)Oc1ccc(C23CCCCC2=CN(CCC(=O)O)C(=O)N3)cc1Cl (racemic) [Example 96]
Human RORγ
  EC50: > 10 µM
Human RORγ; [1]
  hRORγ luciferase activity after treatment with test compound, %-of-control: (84%)
Mouse RORγ
  EC50: > 10 µM
Mouse RORγ; [1]
  mRORγ luciferase activity after treatment with test compound, %-of-control: (84%)

## CC1(C)CC(COc2ccc(C34CCCCC3=CN(CCC(=O)O)C(=O)N4)cc2Cl)C1 (racemic) [Example 100]
Human RORγ
  EC50: 0.206 µM
Mouse RORγ
  EC50: 0.055 µM

## CCCCOc1ccc(C23CCCCC2=CN(CCC(=O)O)C(=O)N3)cc1Cl (racemic) [Example 101]
Human RORγ
  EC50: 7.28 µM
Mouse RORγ
  EC50: 1.39 µM

## CC1C2=CN(C34CC(C(=O)O)(C3)C4)C(=O)NC2(c2ccc(CCC(C)(C)C)c(Cl)c2)CC1(C)C (single isomer, unassigned) [Example 34]
Human RORγ
  EC50: 0.087 µM
Mouse RORγ
  EC50: 0.169 µM

## CC1C2=CN(C34CC(C(=O)O)(C3)C4)C(=O)NC2(c2ccc(CCC(C)(C)C)c(Cl)c2)CC1(C)C (single isomer, unassigned) [Example 35]
Human RORγ
  EC50: 4.19 µM
Mouse RORγ
  EC50: 4.97 µM

## CC(C)(C)CCc1ccc([C@]23CCC(F)(F)CC2=CN(C24CC(C(=O)O)(C2)C4)C(=O)N3)cc1Cl (single isomer, unassigned) [Example 86]
Human RORγ
  EC50: 4.94 µM
Mouse RORγ
  EC50: 4.37 µM

## CC(C)(C)CCc1ccc([C@@]23CCC(F)(F)CC2=CN(C24CC(C(=O)O)(C2)C4)C(=O)N3)cc1Cl (single isomer, unassigned) [Example 87]
Human RORγ
  EC50: 0.038 µM
Mouse RORγ
  EC50: 0.029 µM

## CC1CC[C@]2(c3ccc(CCC(C)(C)C)c(Cl)c3)NC(=O)N(C34CC(C(=O)O)(C3)C4)C=C2C1 (single isomer, unassigned) [Example 89]
Human RORγ
  EC50: 3.71 µM
Mouse RORγ
  EC50: 4.19 µM

## CC1CC[C@@]2(c3ccc(CCC(C)(C)C)c(Cl)c3)NC(=O)N(C34CC(C(=O)O)(C3)C4)C=C2C1 (single isomer, unassigned) [Example 90]
Human RORγ
  EC50: 0.022 µM
Mouse RORγ
  EC50: 0.023 µM

## CC1CC[C@]2(c3ccc(CCC(C)(C)C)c(Cl)c3)NC(=O)N(C34CC(C(=O)O)(C3)C4)C=C2C1 (single isomer, unassigned) [Example 91]
Human RORγ
  EC50: 0.111 µM
Mouse RORγ
  EC50: 0.185 µM

## CC1CC[C@@]2(c3ccc(CCC(C)(C)C)c(Cl)c3)NC(=O)N(C34CC(C(=O)O)(C3)C4)C=C2C1 (single isomer, unassigned) [Example 92]
Human RORγ
  EC50: 0.042 µM
Mouse RORγ
  EC50: 0.019 µM

## CCC1CC[C@]2(c3ccc(CCC(C)(C)C)c(Cl)c3)NC(=O)N(C34CC(C(=O)O)(C3)C4)C=C2C1 (single isomer, unassigned) [Example 93]
Human RORγ
  EC50: 3.97 µM
Mouse RORγ
  EC50: 4.23 µM

## CCC1CC[C@@]2(c3ccc(CCC(C)(C)C)c(Cl)c3)NC(=O)N(C34CC(C(=O)O)(C3)C4)C=C2C1 (single isomer, unassigned) [Example 94]
Human RORγ
  EC50: 0.046 µM
Mouse RORγ
  EC50: 0.082 µM

## CC(C)(C)CCc1ccc(C23CCC(C#N)CC2=CN(C24CC(C(=O)O)(C2)C4)C(=O)N3)cc1Cl (single isomer, unassigned) [Example 97]
Human RORγ
  EC50: 0.11 µM
Mouse RORγ
  EC50: 0.156 µM

## CC(C)C1CC[C@]2(c3ccc(CCC(C)(C)C)c(Cl)c3)NC(=O)N(C34CC(C(=O)O)(C3)C4)C=C2C1 (single isomer, unassigned) [Example 98]
Human RORγ
  EC50: 4.36 µM
Mouse RORγ
  EC50: 5.11 µM

## CC(C)C1CC[C@@]2(c3ccc(CCC(C)(C)C)c(Cl)c3)NC(=O)N(C34CC(C(=O)O)(C3)C4)C=C2C1 (single isomer, unassigned) [Example 99]
Human RORγ
  EC50: 0.053 µM
Mouse RORγ
  EC50: 0.146 µM

## CC(C)(C)CCc1ccc([C@]23CCC(C)(C)CC2=CN(C24CC(C(=O)O)(C2)C4)C(=O)N3)cc1Cl (single isomer, unassigned) [Example 102]
Human RORγ
  EC50: 3.95 µM
Mouse RORγ
  EC50: 4.57 µM

## CC(C)(C)CCc1ccc([C@@]23CCC(C)(C)CC2=CN(C24CC(C(=O)O)(C2)C4)C(=O)N3)cc1Cl (single isomer, unassigned) [Example 103]
Human RORγ
  EC50: 0.026 µM
Mouse RORγ
  EC50: 0.046 µM

## CC(C)C1CC[C@]2(c3ccc(CCC(C)(C)C)c(Cl)c3)NC(=O)N([C@H]3CC[C@@H](C(=O)O)C3)C=C2C1 (single isomer, unassigned) [Example 104]
Human RORγ
  EC50: 5.26 µM
Mouse RORγ
  EC50: 5.28 µM

## CC(C)C1CC[C@@]2(c3ccc(CCC(C)(C)C)c(Cl)c3)NC(=O)N([C@H]3CC[C@@H](C(=O)O)C3)C=C2C1 (single isomer, unassigned) [Example 105]
Human RORγ
  EC50: 0.102 µM
Mouse RORγ
  EC50: 0.113 µM

## C[C@@H]1CCC2(c3ccc(CCC(C)(C)C)c(Cl)c3)NC(=O)N(C34CC(C(=O)O)(C3)C4)C=C2[C@@H]1C (single isomer, unassigned) [Example 106]
Human RORγ
  EC50: 4.4 µM
Mouse RORγ
  EC50: 4.78 µM

## C[C@H]1CCC2(c3ccc(CCC(C)(C)C)c(Cl)c3)NC(=O)N(C34CC(C(=O)O)(C3)C4)C=C2[C@@H]1C (single isomer, unassigned) [Example 107]
Human RORγ
  EC50: 0.027 µM
Mouse RORγ
  EC50: 0.032 µM

## CC1C2=CN(C34CC(C(=O)O)(C3)C4)C(=O)N[C@@]2(c2ccc(CCC(C)(C)C)c(Cl)c2)COC1(C)C (single isomer, unassigned) [Example 108]
Human RORγ
  EC50: 4.69 µM
Mouse RORγ
  EC50: 5.05 µM

## CC1C2=CN(C34CC(C(=O)O)(C3)C4)C(=O)N[C@]2(c2ccc(CCC(C)(C)C)c(Cl)c2)COC1(C)C (single isomer, unassigned) [Example 109]
Human RORγ
  EC50: 0.033 µM
Mouse RORγ
  EC50: 0.036 µM

## CC1C2=CN(C34CC(C(=O)O)(C3)C4)C(=O)N[C@]2(c2ccc(CCC(C)(C)C)c(Cl)c2)COC1(C)C (single isomer, unassigned) [Example 110]
Human RORγ
  EC50: 0.01 µM
Mouse RORγ
  EC50: 0.012 µM

## CC1CC[C@]2(c3ccc(CCC(C)(C)C)c(Cl)c3)NC(=O)N(C34CCC(C(=O)O)(C3)C4)C=C2C1 (single isomer, unassigned) [Example 111]
Human RORγ
  EC50: 3.45 µM
Mouse RORγ
  EC50: 3.66 µM

## CC1CC[C@@]2(c3ccc(CCC(C)(C)C)c(Cl)c3)NC(=O)N(C34CCC(C(=O)O)(C3)C4)C=C2C1 (single isomer, unassigned) [Example 112]
Human RORγ
  EC50: 0.035 µM
Mouse RORγ
  EC50: 0.038 µM

## C[C@H]1CCC2(c3ccc(C4C(C(C)(C)C)C4(F)F)c(Cl)c3)NC(=O)N(C34CC(C(=O)O)(C3)C4)C=C2[C@@H]1C (single isomer, unassigned) [Example 113]
Human RORγ
  EC50: 0.033 µM
Mouse RORγ
  EC50: 0.037 µM

## C[C@H]1CCC2(c3ccc(C4C(C(C)(C)C)C4(F)F)c(Cl)c3)NC(=O)N(C34CC(C(=O)O)(C3)C4)C=C2[C@@H]1C (single isomer, unassigned) [Example 114]
Human RORγ
  EC50: 0.027 µM
Mouse RORγ
  EC50: 0.05 µM
